What all share (format): cell-based
One test has as its target T1, Estrogen Receptor β (Homo sapiens, UniProt Q92731).
T1 construct: host or cells: engineered reporter cells of the kit
Description: Target selectivity counterscreen, Estrogen Receptor β reporter assay. Conditions: receptor agonist at ~EC80. Here is the method: (§1) Target Selectivity Assays
(§2) To determine species selectivity, a Mouse PPARα Reporter Assay System was used (Indigo Biosciences, Cat. #M00111). Activity of test compounds to antagonize or agonize other isoforms of human PPAR, for example β/δ and γ, were assessed using the corresponding kits from Indigo Biosciences (Cat. #IB00121 and #IB00101, respectively). In addition to PPAR activity, compounds were also screened for activity against other nuclear hormone receptors including Estrogen Receptor β, Glucocorticoid Receptor and Thyroid Receptor β using commercially available kits (Indigo Biosciences, Cat. #IB00411, IB00201 and IB01101, respectively). Each assay system from Indigo Biosciences uses technology analogous to the human PPARα kit, with the variance being that the cells used for each assay were engineered to over-express the receptor of interest. In addition, the appropriate receptor agonist (included with each kit) was used at ˜EC80 for assays in which antagonist potency was being assessed.
On the technique in general: The purpose of a counterscreen is to sort out artefacts and off-target activity.

The target of another test is T2, Human PPARα (Homo sapiens, UniProt Q07869).
T2 construct: host or cells: proprietary non-human mammalian cells
T2 sequence (Q07869 1-468): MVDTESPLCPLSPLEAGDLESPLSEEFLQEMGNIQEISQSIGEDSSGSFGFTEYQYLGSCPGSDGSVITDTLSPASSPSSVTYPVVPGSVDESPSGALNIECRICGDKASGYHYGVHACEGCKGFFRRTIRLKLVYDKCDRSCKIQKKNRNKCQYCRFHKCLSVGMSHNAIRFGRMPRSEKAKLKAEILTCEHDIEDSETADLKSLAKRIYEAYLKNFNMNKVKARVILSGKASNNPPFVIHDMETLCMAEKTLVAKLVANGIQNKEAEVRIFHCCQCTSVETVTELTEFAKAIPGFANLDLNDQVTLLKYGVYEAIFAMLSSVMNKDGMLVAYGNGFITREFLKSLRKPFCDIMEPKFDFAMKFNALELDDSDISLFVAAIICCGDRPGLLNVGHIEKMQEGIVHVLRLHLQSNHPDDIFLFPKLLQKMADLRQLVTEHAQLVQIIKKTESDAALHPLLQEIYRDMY
Description: Human PPARα Reporter Assay (luciferase). The method in brief:
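Non-human mammalian cells constitutively expressing human PPARα with a PPARα-responsive luciferase reporter were dosed with compounds right after plating. After overnight incubation, media removed and detection reagent added; luminescence taken as proportional to PPARα activation, agonist or antagonist mode.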
(A reporter such as luciferase makes a cellular process visible.)

A further test concerns the target T3, PPAR beta/delta (Homo sapiens, UniProt Q03181).
T3 construct: host or cells: engineered reporter cells of the kit
T3 sequence (Q03181 1-441): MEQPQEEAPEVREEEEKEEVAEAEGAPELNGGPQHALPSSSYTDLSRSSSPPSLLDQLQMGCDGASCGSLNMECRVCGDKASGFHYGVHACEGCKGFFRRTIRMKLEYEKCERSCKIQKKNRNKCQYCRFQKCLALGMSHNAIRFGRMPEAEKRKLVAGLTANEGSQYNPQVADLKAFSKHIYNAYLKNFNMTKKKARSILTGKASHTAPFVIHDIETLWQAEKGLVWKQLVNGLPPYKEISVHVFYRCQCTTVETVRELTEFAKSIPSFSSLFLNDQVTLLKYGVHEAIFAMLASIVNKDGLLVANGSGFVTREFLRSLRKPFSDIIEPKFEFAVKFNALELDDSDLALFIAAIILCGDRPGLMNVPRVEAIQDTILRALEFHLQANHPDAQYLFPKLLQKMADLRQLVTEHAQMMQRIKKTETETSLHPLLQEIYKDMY
Description: Target selectivity counterscreen, PPAR β/δ reporter assay. As to conditions: receptor agonist at ~EC80. Here is the method:
as §1, §2

For the next test, the target named is T4, PPAR gamma (Homo sapiens, UniProt P37231).
T4 construct: host or cells: engineered reporter cells of the kit
T4 sequence (P37231 1-505): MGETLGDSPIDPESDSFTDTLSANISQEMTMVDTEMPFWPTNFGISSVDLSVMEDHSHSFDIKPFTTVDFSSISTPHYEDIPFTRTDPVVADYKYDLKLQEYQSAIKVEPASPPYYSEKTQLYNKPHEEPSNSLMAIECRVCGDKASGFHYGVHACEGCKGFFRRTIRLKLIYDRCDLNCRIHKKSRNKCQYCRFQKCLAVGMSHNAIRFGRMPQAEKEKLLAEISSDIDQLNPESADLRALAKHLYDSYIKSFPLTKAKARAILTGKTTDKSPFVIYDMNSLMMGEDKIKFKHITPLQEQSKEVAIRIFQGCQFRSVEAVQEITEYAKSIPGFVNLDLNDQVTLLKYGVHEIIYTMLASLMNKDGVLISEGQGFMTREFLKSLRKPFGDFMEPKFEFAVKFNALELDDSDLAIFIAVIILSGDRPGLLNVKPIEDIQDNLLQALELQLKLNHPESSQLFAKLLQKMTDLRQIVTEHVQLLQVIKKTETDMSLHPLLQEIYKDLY
Description: Target selectivity counterscreen, PPAR γ reporter assay. Conditions: receptor agonist at ~EC80. Here is the method:
as §1, §2

Another test addresses T5, Glucocorticoid Receptor (Homo sapiens, UniProt P04150).
T5 construct: host or cells: engineered reporter cells of the kit
T5 sequence (P04150 1-777): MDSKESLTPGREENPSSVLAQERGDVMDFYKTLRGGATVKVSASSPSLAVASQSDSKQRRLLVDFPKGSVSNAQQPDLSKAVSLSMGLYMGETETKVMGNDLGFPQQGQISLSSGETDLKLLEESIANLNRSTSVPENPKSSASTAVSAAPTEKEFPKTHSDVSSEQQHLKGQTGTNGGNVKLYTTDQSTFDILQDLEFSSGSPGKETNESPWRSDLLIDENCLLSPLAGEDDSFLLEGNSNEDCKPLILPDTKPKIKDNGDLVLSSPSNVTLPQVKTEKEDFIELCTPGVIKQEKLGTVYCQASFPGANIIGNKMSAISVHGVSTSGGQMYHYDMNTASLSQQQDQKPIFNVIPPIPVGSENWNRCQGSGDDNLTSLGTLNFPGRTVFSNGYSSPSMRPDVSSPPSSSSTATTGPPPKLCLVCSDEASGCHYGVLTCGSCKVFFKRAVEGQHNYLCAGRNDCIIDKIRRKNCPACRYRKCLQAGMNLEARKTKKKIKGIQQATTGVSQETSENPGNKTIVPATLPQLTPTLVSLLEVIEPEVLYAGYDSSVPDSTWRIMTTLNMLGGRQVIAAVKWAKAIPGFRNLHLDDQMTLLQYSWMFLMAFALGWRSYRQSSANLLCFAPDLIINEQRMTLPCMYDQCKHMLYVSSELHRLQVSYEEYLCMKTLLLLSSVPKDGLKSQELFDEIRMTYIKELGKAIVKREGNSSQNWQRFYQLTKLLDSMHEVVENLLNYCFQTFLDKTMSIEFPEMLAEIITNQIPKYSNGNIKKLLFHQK
Description: Target selectivity counterscreen, Glucocorticoid Receptor reporter assay. As to conditions: receptor agonist at ~EC80. Here is the method:
as §1, §2

For the next test, the target named is T6, Thyroid Receptor β (Homo sapiens, UniProt P10828).
T6 construct: host or cells: engineered reporter cells of the kit
T6 sequence (P10828 1-461): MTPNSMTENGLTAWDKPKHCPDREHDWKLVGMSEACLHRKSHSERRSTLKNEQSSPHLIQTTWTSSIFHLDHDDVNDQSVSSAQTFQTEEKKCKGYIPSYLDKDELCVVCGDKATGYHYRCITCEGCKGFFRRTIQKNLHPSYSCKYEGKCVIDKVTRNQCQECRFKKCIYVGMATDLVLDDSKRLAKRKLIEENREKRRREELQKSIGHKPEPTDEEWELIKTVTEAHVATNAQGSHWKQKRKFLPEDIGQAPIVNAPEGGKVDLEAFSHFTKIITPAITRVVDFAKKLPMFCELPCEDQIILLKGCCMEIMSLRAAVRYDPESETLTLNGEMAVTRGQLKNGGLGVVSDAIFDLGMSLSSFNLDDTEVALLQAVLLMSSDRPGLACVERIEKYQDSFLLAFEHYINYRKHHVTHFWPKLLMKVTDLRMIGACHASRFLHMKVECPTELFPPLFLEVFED
Description: Target selectivity counterscreen, Thyroid Receptor β reporter assay. As to conditions: receptor agonist at ~EC80. Here is the method:
as §1, §2

The mark [1] stands for this setting: human PPARα reporter cells, overnight incubation, antagonism, read-out: Luciferase IC50.

Read-outs that look alike come from different tables or passages of the source.

What is called IC50 is the concentration at which inhibition is half-maximal.

T1 sequence (Q92731 whole entry): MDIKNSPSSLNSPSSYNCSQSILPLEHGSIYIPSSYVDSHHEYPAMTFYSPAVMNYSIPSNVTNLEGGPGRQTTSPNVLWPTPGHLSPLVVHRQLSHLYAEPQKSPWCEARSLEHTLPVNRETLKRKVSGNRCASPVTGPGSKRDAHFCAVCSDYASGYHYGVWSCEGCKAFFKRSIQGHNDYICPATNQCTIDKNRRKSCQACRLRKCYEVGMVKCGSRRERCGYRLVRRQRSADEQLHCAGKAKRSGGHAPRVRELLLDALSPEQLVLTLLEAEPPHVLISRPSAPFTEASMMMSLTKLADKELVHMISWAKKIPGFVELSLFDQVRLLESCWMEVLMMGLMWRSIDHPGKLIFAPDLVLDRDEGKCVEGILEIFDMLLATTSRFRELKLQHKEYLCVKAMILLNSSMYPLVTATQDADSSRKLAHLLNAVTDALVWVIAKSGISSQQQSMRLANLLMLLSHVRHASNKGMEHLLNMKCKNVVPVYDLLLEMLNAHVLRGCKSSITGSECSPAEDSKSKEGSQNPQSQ

On to `CCn1c(CCCc2ccc(-c3cccc(CC(=O)O)c3)cc2)nn(Cc2ccccc2)c1=O` [Example 23, 2-(4′-(3-(1-Benzyl-4-ethyl-5-oxo-4,5-dihydro-1H-1,2,4-triazol-3-yl)propyl)-[1,1′-biphenyl]-3-yl)acetic acid], for which the IC50 was 17.5 µM at Estrogen Receptor β; 0.025 µM at Human PPARα (counterscreen table, antagonist potency, read-out: PPAR alpha IC50); 7.31 µM at Human PPARα (setting [1]); above 50 µM on PPAR beta/delta; above 50 µM at PPAR gamma; above 10 µM at Glucocorticoid Receptor. In addition, the IC50 on Thyroid Receptor β was above 10 µM. For `CCn1c(CCCc2ccc(-c3ccc(OC)c(CC(=O)O)n3)cc2)nn(Cc2ccc(C(C)(C)C)cc2)c1=O` [Example 144, 2-(6-(4-(3-(1-(4-(tert-Butyl)benzyl)-4-ethyl-5-oxo-4,5-dihydro-1H-1,2,4-triazol-3-yl)propyl)phenyl)-3-methoxypyridin-2-yl)acetic acid], the concentration for half-maximal inhibition (IC50) at Human PPARα (setting [1]) was determined as 0.114 µM. Same read-out and setting: the figure for `CCn1c(CCCc2ccc(-c3ccc(C4(F)COC4)nc3)cc2)nn(Cc2ccc(C(C)(C)C)cc2)c1=O` [Example 166, 1-(4-(tert-Butyl)benzyl)-4-ethyl-3-(3-(4-(6-(3-fluorooxetan-3-yl)pyridine-3-yl)phenyl)propyl)-1H-1,2,4-triazol-5(4H)-one] is 0.091 µM; for `CCn1c(CCCc2ccc(-c3cnc(NS(=O)(=O)c4ccccc4)cn3)cc2)nn(Cc2ccc(C(C)(C)C)cc2)c1=O` [Example 118, N-(5-(4-(3-(1-(4-(tert-Butyl)benzyl)-4-ethyl-5-oxo-4,5-dihydro-1H-1,2,4-triazol-3-yl)propyl)phenyl)pyrazin-2-yl)benzenesulfonamide] it is 0.446 µM; for `CCn1c(CCCc2ccc(-c3ccc(OC)c(NS(=O)(=O)c4ccc(Cl)cc4)n3)cc2)nn(Cc2ccc(C(C)(C)C)cc2)c1=O` [Example 92, 1-{[4-(tert-Butyl)phenyl]methyl}-3-{3-[4-(6-{[(4-chlorophenyl)sulfonyl]amino}-5-methoxy(2-pyridyl))phenyl]propyl}-4-ethyl-1,2,4-triazolin-5-one] it is 0.005 µM.

In the case of `CCn1c(CCCc2ccc(-c3cncc(NS(=O)(=O)c4ccccc4)c3)cc2)nn(Cc2ccc(C(C)(C)C)cc2)c1=O` [Example 117, N-(5-(4-(3-(1-(4-(tert-Butyl)benzyl)-4-ethyl-5-oxo-4,5-dihydro-1H-1,2,4-triazol-3-yl)propyl)phenyl)pyridin-3-yl)benzenesulfonamide], the IC50 at Human PPARα (setting [1]) is 0.799 µM. As for `CCn1c(CCCc2ccc(-c3csc(C4(F)COC4)n3)cc2)nn(Cc2ccc(C(C)(C)C)cc2)c1=O` [Example 201, 1-(4-(tert-Butyl)benzyl)-4-ethyl-3-(3-(4-(2-(3-fluorooxetan-3-yl)thiazol-4-yl)phenyl)propyl)-1H-1,2,4-triazol-5(4H)-one], on Human PPARα (setting [1]), the IC50 turned out to be 0.533 µM.

For `CCn1c(CCCc2ccc(-c3cccc(CN)c3)cc2)nn(Cc2ccc(C(C)(C)C)cc2)c1=O` [Example 172, 3-(3-{4-[3-(Aminomethyl)phenyl]phenyl}propyl)-1-{[4-(tert-butyl)phenyl]methyl}-4-ethyl-1,2,4-triazolin-5-one], the IC50 on Human PPARα (setting [1]) is 0.647 µM.

For the compound `CCn1c(CCCc2ccc(-c3ccc(OC)c(CC(=O)O)c3)c(C)c2)nn(Cc2ccc(C(C)(C)C)cc2)c1=O` [Example 157, 2-(4′-(3-(1-(4-(tert-Butyl)benzyl)-4-ethyl-5-oxo-4,5-dihydro-1H-1,2,4-triazol-3-yl)propyl)-4-methoxy-2′-methyl-[1,1′-biphenyl]-3-yl)acetic acid], on Human PPARα (setting [1]), the IC50 stood at 0.094 µM. Same read-out and setting: the figure for `CCn1c(CCCc2ccc(-c3ccc(NS(=O)(=O)Cc4ccccc4)cn3)cc2)nn(Cc2ccc(C(C)(C)C)cc2)c1=O` [Example 79, 1-{[4-(tert-Butyl)phenyl]methyl}-4-ethyl-3-{3-[4-(5-{[benzylsulfonyl]amino}(2-pyridyl))phenyl]propyl}-1,2,4-triazolin-5-one] is 0.263 µM. As for `CCOc1ccc(-c2ccc(CCCc3nn(Cc4ccc(C(C)(C)C)cc4)c(=O)n3CC)cc2)nc1N` [Example 60, 3-{3-[4-(6-Amino-5-ethoxy(2-pyridyl))phenyl]propyl}-1-{[4-(tert-butyl)phenyl]methyl}-4-ethyl-1,2,4-triazolin-5-one], the half-maximal inhibitory concentration (IC50) at Human PPARα (setting [1]) was found to be 0.063 µM.

The values are drawn from patent US9505728B2, “Triazolone compounds and uses thereof” (INCEPTION 2, INC., priority 2012, dated 2016).
